Measurements published in patent US7432365B1, “DNA molecules encoding beta clamp proteins of gram positive bacteria” (priority 1998, dated 2008).

B1: Streptococcus pyogenes δ subunit (holA gene product) (other)
chain: MIAIEKIEKLSKENLGLITLVTGDDIGQYSQLKSRLMEQIAFDKDDLAYSYFDMSEAAYQDAEMDLVSLPFFAEQKVVIFDHLLDITTNKKSFLKEKDLKAFEAYLENPLETTRLIIFAPGKLDSKRRLVKLLKRDALVLEANPLKEAELRTYFQKYSHQLGLGFESGAFDQLLLKSNDDFSQIMKNMAFLKAYKKTGNISLTDIEQAIPKSLQDNIFDLTRLVLGGKIDAARDLIHDLRLSGEDDIKLIAIMLGQFRLFLQLTILARDVKNEQQLVISLSDILGRRVNPYQVKYALKDSRTLSLAFLTGAVKTLIETDYQIKTGLYEKSYLVDIALLKIMTHSQK
notes: also called delta; putative δ

Experiments:
[1] = system: Peak2 (Pol II); assay: DNA polymerase assay in presence or absence of pCMB, NEM, 0.15 M KCl; type: biochemical, Staphylococcus aureus; details: S. aureus Peak2
Protocol: (§1) These assays were used in the purification of DNA polymerases from S. aureus cell extracts. Assays contained 2.5 μg activated calf thymus DNA in a final volume of 25 μl replication buffer. An aliquot of the fraction to be assayed was added to the assay mixture on ice followed by incubation at 37° C. for 5 min. DNA synthesis was quantitated using DE81 paper as described in Rowen et al., “Primase, the DnaG Protein of Escherichia coli. An Enzyme Which Starts DNA Chains,” J. Biol. Chem., 253:758-764 (1979), which is hereby incorporated by reference.
(§2) Next, it was determined which of these peaks of DNA polymerase activity correspond to DNA polymerases 1, I, and III, and which peak is the unidentified DNA polymerase. In the Gram positive bacterium B. subtilis, Pol III is inhibited by pCMB, NEM, and 0.15 M NaCl, Pol II is inhibited by KCl, but not NEM or 0.15 M KCL, and Pol I is not inhibited by any of these treatments (Gass et al., “Further Genetic and Enzymological Characterization of the Three Bacillus subtilis Deoxyribonucleic Acid Polymerases,” J. Biol. Chem., 248:7688-7700 (1973), which is hereby incorporated by reference).

[2] = molecular target: T1, Peak4 (Pol III-L) (Staphylococcus aureus, UniProt P0C1P9); assay: as above; type: biochemical; details: S. aureus Peak4
T1 construct: peak 4 (last peak off Mono Q); endogenous in cells; host or cells: S. aureus strain 4220 lysate, MonoQ peak 4 (partially pure)
T1 sequence (P0C1P9 1-1435): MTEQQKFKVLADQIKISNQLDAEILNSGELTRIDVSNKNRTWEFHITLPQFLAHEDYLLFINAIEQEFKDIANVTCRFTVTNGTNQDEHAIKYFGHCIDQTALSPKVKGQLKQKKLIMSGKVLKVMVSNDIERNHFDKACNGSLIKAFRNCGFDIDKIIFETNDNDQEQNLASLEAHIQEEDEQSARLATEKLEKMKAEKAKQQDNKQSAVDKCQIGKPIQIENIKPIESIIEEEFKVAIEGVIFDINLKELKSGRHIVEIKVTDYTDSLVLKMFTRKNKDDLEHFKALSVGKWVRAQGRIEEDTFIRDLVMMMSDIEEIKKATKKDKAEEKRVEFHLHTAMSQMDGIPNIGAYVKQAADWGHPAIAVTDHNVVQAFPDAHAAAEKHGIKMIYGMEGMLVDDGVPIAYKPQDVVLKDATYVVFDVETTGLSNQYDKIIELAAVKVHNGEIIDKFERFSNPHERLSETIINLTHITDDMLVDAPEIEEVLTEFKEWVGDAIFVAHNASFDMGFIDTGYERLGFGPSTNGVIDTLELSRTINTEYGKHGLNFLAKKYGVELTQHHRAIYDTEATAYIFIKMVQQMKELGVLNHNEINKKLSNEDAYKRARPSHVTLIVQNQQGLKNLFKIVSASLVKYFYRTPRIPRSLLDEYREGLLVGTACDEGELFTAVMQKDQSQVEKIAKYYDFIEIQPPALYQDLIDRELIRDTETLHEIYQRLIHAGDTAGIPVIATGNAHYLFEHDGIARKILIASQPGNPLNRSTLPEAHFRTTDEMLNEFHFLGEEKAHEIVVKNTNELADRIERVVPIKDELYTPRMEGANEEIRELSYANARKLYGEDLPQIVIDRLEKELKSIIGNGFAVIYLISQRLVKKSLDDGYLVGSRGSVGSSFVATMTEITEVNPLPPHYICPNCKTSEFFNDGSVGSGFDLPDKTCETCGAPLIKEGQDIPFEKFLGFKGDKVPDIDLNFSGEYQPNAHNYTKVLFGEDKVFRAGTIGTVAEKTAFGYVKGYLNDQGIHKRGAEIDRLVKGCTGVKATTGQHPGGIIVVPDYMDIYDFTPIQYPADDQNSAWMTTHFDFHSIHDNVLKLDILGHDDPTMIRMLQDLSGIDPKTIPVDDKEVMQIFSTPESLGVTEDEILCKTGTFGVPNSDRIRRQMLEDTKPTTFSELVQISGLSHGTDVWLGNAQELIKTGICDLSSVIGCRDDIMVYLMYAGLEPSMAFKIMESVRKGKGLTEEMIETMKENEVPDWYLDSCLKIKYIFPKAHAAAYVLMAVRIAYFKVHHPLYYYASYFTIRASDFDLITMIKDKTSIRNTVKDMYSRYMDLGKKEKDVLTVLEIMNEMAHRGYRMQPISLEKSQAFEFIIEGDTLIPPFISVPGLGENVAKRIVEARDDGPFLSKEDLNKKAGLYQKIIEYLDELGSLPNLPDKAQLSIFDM
Protocol: as §1, §2

[3] = molecular target: Pol III-L (Bacillus subtilis, UniProt P13267); details: Pol III / Pol III-L; cited from earlier work
[4] = molecular target: Pol I (Bacillus subtilis, UniProt O34996); details: cited from earlier work
[5] = system: Peak3 (Pol I); assay: DNA polymerase assay in presence or absence of pCMB, NEM, 0.15 M KCl; type: biochemical, Staphylococcus aureus; details: S. aureus Peak3
Protocol: (§3) These assays were used in the purification of DNA polymerases from S. aureus cell extracts. Assays contained 2.5 μg activated calf thymus DNA in a final volume of 25 μl replication buffer. An aliquot of the fraction to be assayed was added to the assay mixture on ice followed by incubation at 37° C. for 5 min.
(§4) Next, it was determined which of these peaks of DNA polymerase activity correspond to DNA polymerases 1, I, and III, and which peak is the unidentified DNA polymerase. In the Gram positive bacterium B. subtilis, Pol III is inhibited by pCMB, NEM, and 0.15 M NaCl, Pol II is inhibited by KCl, but not NEM or 0.15 M KCL, and Pol I is not inhibited by any of these treatments (Gass et al., “Further Genetic and Enzymological Characterization of the Three Bacillus subtilis Deoxyribonucleic Acid Polymerases,” J. Biol. Chem., 248:7688-7700 (1973), which is hereby incorporated by reference). […] Peak 3 clearly corresponded to Pol I, because it was not inhibited by NEM, pCMB, or 0.15 M NaCl. Peak 2 correspond to Pol II, because it was not inhibited by NEM, but was inhibited by pCMB and 0.15 M NaCl. Peaks 1 and 4 both had characteristics that mimic Pol III; however, peak 4 elutes on MonoQ at a similar position as Pol III-L expressed in E. coli (see FIG. 2B).

[6] = system: Peak1 (new polymerase); assay: as above; type: biochemical, Staphylococcus aureus; details: S. aureus Peak1
Protocol: as §3, §4

[7] = system: Pol II; details: cited from earlier work
[8] = molecular target: Staphylococcus aureus beta subunit (dnaN gene product) (Staphylococcus aureus) (UniProt P0A022); assay: cell-based or functional assay
[9] = molecular target: T2, Streptococcus pyogenes δ′ subunit (holB gene product) (Streptococcus pyogenes); assay: gel filtration on Superose 6 of an α-large, τ, δ, δ′ mixture, SDS-PAGE of fractions
T2 construct: also called delta prime; 6′
T2 chain: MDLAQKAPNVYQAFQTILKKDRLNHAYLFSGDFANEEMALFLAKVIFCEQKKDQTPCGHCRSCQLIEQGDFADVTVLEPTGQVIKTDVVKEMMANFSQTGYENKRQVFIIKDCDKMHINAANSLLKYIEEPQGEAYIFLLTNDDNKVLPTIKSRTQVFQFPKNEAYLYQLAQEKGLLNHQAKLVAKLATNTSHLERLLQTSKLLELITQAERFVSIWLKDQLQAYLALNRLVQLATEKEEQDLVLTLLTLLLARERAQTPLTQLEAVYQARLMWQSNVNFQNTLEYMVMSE

[10] = molecular target: T2, Streptococcus pyogenes δ′ subunit (holB …); assay: gel filtration on Superose 6 in buffer A with 100 mM NaCl, SDS-PAGE of fractions
[11] = molecular target: B1; assay: as above

Sequence of Pol III-L (P13267 whole entry): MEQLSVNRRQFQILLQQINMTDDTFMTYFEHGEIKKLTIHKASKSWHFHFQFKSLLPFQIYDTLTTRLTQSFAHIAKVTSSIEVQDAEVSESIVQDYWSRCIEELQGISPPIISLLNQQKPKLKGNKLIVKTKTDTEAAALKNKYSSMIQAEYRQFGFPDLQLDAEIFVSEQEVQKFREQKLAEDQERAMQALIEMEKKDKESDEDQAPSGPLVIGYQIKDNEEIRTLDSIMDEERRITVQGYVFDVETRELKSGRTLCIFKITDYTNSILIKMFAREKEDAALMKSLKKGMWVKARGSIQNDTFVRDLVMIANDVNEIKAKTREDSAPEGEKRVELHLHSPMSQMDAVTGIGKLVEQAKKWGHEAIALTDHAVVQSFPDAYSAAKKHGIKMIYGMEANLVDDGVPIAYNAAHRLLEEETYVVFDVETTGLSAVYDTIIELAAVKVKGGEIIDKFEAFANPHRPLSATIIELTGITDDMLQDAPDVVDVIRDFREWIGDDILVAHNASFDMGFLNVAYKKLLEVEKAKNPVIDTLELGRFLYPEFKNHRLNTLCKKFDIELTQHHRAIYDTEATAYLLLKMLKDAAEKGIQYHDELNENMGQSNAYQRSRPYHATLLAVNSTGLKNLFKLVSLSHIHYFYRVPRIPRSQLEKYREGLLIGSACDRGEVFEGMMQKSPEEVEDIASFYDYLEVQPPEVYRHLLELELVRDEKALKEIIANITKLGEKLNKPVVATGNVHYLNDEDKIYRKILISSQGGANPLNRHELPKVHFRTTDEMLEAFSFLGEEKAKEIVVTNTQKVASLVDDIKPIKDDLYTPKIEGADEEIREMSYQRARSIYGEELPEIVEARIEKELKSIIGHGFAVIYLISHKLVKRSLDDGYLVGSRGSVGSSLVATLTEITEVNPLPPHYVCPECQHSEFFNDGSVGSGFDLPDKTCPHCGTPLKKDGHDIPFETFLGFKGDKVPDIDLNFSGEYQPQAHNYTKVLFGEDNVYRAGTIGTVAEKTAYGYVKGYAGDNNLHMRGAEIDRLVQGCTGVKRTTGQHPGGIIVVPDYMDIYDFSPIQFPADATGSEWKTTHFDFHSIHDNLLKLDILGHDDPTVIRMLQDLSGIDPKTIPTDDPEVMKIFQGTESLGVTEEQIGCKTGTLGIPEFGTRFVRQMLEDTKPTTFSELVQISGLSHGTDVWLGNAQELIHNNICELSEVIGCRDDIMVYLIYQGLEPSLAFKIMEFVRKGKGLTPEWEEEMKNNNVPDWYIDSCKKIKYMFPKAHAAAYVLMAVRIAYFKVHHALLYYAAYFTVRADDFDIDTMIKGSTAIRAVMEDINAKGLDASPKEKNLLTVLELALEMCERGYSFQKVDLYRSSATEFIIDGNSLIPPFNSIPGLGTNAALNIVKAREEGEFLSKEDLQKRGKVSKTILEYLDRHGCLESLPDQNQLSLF
Sequence of Pol I (O34996 whole entry): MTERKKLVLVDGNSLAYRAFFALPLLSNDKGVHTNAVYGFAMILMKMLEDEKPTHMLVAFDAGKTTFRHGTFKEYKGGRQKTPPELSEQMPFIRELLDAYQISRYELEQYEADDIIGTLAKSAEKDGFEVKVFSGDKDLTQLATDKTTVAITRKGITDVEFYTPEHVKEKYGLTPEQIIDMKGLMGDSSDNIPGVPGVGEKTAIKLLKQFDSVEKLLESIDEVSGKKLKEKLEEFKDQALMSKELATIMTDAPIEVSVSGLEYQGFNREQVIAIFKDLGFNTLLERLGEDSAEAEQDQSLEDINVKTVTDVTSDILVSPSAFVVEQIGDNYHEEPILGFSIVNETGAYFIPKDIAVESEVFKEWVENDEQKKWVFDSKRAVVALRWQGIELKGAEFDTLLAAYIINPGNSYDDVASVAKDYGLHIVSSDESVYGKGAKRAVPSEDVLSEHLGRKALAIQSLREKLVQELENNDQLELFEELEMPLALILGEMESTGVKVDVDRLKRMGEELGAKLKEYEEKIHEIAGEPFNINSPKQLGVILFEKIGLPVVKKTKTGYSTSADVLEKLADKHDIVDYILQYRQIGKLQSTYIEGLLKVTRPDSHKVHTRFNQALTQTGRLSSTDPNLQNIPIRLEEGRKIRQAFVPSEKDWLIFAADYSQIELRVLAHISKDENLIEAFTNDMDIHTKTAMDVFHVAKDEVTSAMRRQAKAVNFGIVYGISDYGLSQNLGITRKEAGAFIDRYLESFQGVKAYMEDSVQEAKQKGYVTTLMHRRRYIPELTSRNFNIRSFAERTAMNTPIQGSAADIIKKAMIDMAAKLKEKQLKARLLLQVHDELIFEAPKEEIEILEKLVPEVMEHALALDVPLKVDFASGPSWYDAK

| Molecule | Observed characteristics: inhibition of polymerase activity [1] | Observed characteristics: inhibition of polymerase activity [2] | Expected characteristics: inhibition of polymerase activity [3] | Expected characteristics: inhibition of polymerase activity [4] | Observed characteristics: inhibition of polymerase activity [5] | Observed characteristics: inhibition of polymerase activity [6] | Expected characteristics: inhibition of polymerase activity [7] | other results |
| --- | --- | --- | --- | --- | --- | --- | --- | --- |
| CCN1C(=O)C=CC1=O [NEM] | not inhibited (Not inhibited is defined as greater than 75% remaining activity) | inhibited (Inhibited is defined as less than 40% remaining activity) | inhibited (Inhibited is defined as less than 40% remaining activity) | not inhibited (Not inhibited is defined as greater than 75% remaining activity) | not inhibited (Not inhibited is defined as greater than 75% remaining activity) | inhibited (Inhibited is defined as less than 40% remaining activity) | not inhibited (Not inhibited is defined as greater than 75% remaining activity) |  |
| O=C(O)c1cc[c]([Hg][Cl])cc1 [pCMB] | inhibited (Inhibited is defined as less than 40% remaining activity) | inhibited (Inhibited is defined as less than 40% remaining activity) | inhibited (Inhibited is defined as less than 40% remaining activity) | not inhibited* (Not inhibited is defined as greater than 75% remaining activity) | not inhibited (Not inhibited is defined as greater than 75% remaining activity) | inhibited (Inhibited is defined as less than 40% remaining activity) | inhibited** (Inhibited is defined as less than 40% remaining activity) |  |
| Escherichia coli clamp loader complex (gamma complex: gamma, delta, delta prime, chi, psi) (from UniProt P06710 2-431; P28630 1-343; P28631 1-334; P28905 1-147; P28632 1-137) |  |  |  |  |  |  |  | Total DNA synthesis on circular singly primed M13mp18 ssDNA, lane 3 (Pol III-L, S. aureus beta and E. coli clamp loader complex; lane 1 Pol III-L alone 0.6 pmol) [8]: 0.99 pmol |
| B1 |  |  |  |  |  |  |  | binding result [9]: binds |
| Streptococcus pyogenes τ subunit (dnaX gene product) (other, also called tau; DnaX-protein) MYQALYRKYRSQTFDEMVGQSVISTTLKQAVESGKISHAYLFSGPRGTGKTSAAKIFAKAMNCPNQVDGEPCNQCDICRDITNGSLEDVIEIDAASNNGVDEIRDIRDKSTYAPSRATYKVYIIDEVHMLSTGAFNALLKTLEEPTENVFILATTELHKIPATILSRVQRFEFKAIKQKAIREHLAWVLDKEGIAYEVDALNLIARRAEGGMRDALSILDQALSLSPDNQVAIAIAEEITGSISILALGDYVRYVSQEQATQALAALETIYDSGKSMSRFATDLLTYLRDLLVVKAGGDNQRQSAVFDTNLSLSIDRIFQMITVVTSHLPEIKKGTHPRIYAEMMTIQLAQKEQILSQVNLSGELISEIETLKNELAQLKQQLSQLQSRPDSLARSDKTKPKTTSYRVDRVTILKIMEETVRNSQQSRQYLDALKNAWNEILDNISAQDRALLMGSEPVLANSENAILAFEAAFNAEQVMSRNNLNDMFGNIMSKAAGFSPNILAVPRTDFQHIRKEFAQQMKSQKDSVQEEQEVALDIPEGFDFLLDKINTIDD |  |  |  |  |  |  |  | binding result [10]: no binding (tested: δ′ (200 µg) in 100 µl); binding result [11]: no binding (tested: δ (200 µg) in 100 µl) |
